# In US12324802B2, “Modulators of cystic fibrosis transmembrane conductance regulator” (Vertex Pharmaceuticals Incorporated, priority 2020, dated 2025):
# Target: T1, CFTR (F508del/MF-HBE cells) (Homo sapiens, UniProt P13569, DEL508-508)
# T1 construct: human bronchial epithelial (HBE) cells derived from CF subjects heterozygous for F508del and a minimal function CFTR mutation; endogenous in cells; host or cells: primary human bronchial epithelial cells from CF subjects (F508del/MF genotype)
# Experiment: Ussing chamber assay of CFTR-mediated short-circuit currents (identification of potentiator compounds)
# Assay type: cell-based
# Conditions: CFTR-mediated ISC in F508del/MF-HBE cells; incubated 18-24 hours at 37° C. with 10 μM (14S)-8-[3-(2-{dispiro[2.0.2.1]heptan-7-yl}ethoxy)-1H-pyrazol-1-yl]-...-2,2,4-trione, 20% human serum
# Summary of the method: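 F508del/minimal-function HBE cultures grown at air-liquid interface were incubated for 18–24 h at 37 °C with potentiator plus 10 μM corrector, in 20% human serum, and compounds stayed present during recording. Transepithelial ISC was recorded at 0 mV and 37 °C with 30 μM apical amiloride. CFTR current was taken as the peak response to 20 μM forskolin minus the steady state after a 20 μM inhibitor cocktail.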
# T1 sequence (P13569 with tags, fused parts or gaps DEL508-508): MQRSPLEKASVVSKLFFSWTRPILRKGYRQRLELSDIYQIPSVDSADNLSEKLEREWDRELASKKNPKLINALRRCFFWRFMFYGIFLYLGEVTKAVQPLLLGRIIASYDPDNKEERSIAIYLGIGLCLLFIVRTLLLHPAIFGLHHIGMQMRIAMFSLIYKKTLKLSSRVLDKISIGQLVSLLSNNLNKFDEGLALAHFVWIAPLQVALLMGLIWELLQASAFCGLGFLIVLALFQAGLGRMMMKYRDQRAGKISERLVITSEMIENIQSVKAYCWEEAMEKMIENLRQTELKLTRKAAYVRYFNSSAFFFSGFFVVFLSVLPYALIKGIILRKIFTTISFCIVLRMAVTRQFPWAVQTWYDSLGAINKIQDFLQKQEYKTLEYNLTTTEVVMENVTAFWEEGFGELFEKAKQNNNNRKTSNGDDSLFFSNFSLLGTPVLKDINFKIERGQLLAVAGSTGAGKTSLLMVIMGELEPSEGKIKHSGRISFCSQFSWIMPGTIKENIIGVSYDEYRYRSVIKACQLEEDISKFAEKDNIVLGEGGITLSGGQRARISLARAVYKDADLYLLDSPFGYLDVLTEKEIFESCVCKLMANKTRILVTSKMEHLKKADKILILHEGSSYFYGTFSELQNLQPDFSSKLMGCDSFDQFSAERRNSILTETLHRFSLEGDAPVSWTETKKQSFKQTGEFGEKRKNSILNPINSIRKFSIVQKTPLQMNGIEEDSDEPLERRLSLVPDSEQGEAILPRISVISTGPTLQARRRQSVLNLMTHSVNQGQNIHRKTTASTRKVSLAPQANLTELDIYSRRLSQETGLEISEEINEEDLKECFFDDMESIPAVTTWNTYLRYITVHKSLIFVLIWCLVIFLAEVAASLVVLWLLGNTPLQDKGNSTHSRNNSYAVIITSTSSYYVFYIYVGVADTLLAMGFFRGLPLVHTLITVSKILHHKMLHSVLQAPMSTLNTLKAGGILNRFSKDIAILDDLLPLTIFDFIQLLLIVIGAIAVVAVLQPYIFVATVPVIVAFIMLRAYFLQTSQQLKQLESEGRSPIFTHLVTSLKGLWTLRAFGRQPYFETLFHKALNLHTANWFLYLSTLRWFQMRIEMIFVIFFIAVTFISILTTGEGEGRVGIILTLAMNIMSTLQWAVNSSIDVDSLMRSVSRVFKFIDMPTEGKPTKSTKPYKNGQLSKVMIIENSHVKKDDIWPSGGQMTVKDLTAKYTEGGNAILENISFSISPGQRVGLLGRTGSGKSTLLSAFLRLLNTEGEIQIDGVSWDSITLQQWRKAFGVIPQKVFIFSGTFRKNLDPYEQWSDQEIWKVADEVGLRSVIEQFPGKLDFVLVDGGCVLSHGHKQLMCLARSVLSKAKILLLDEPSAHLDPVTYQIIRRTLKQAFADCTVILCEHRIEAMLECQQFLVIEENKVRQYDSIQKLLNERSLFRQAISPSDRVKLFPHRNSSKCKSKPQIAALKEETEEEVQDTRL
row,SMILES,EC50 [nM]
1,"Nc1cc(C(F)(F)F)c2nc1-c1nnc(o1)C(O)(C(F)(F)F)CCCCCCN2 (single isomer, unassigned) [Compound 56, 17-amino-6,15-bis(trifluoromethyl)-19-oxa-3,4,13,18-tetrazatricyclo[12.3.1.12,5]nonadeca-1(18),2,4,14,16-pentaen-6-ol]",< 500
2,"CN1CCCCCCC(C)(O)C2=NN=C(O2)c2nc1c(C(F)(F)F)cc2N (single isomer, unassigned) [Compound 61, 17-amino-6,13-dimethyl-15-(trifluoromethyl)-19-oxa-3,4,13,18-tetrazatricyclo[12.3.1.12,5]nonadeca-1(17),2,4,14(18),15-pentaen-6-ol]",< 500
3,"CN1CCCCCCC(C)(O)C2=NN=C(O2)c2nc1c(C(F)(F)F)cc2N (single isomer, unassigned) [Compound 62, 17-amino-6,13-dimethyl-15-(trifluoromethyl)-19-oxa-3,4,13,18-tetrazatricyclo[12.3.1.12,5]nonadeca-1(17),2,4,14(18),15-pentaen-6-ol]",< 500
4,"CC1CCCCCC(O)(C(F)(F)F)C2=NN=C(O2)c2nc(c(C(F)(F)F)cc2N)N1 (single isomer, unassigned) [Compound 65, 17-amino-12-methyl-6,15-bis(trifluoromethyl)-19-oxa-3,4,13,18-tetrazatricyclo[12.3.1.12,5]nonadeca-1(18),2,4,14,16-pentaen-6-ol]",< 500
5,"Nc1cc(C(F)(F)F)c2nc1-c1nnc(o1)C(O)(C(F)(F)F)c1cccc(c1)CCC[C@@H]1CCCN21 (single isomer, unassigned) [Compound 70]",< 500
6,"Nc1cc(C(F)(F)F)c2nc1-c1nnc(o1)C(O)(C(F)(F)F)CCCCCCN2C1CCC1 (single isomer, unassigned) [Compound 73, 17-amino-13-cyclobutyl-6,15-bis(trifluoromethyl)-19-oxa-3,4,13,18-tetrazatricyclo[12.3.1.12,5]nonadeca-1(18),2,4,14,16-pentaen-6-ol]",< 500
7,"CN1CCCCCCC(O)(c2ccccc2)C2=NN=C(O2)c2nc1c(C(F)(F)F)cc2N (single isomer, unassigned) [Compound 77, 17-amino-13-methyl-6-phenyl-15-(trifluoromethyl)-19-oxa-3,4,13,18-tetrazatricyclo[12.3.1.12,5]nonadeca-1(18),2,4,14,16-pentaen-6-ol]",> 1000
8,"CN1CCCCCCC(O)(C2CC2)C2=NN=C(O2)c2nc1c(C(F)(F)F)cc2N (single isomer, unassigned) [Compound 78, 17-amino-6-cyclopropyl-13-methyl-15-(trifluoromethyl)-19-oxa-3,4,13,18-tetrazatricyclo[12.3.1.12,5]nonadeca-1(18),2,4,14,16-pentaen-6-ol]",< 500
9,"N#Cc1cc(N)c2nc1N1CCC[C@H]1CCCCCC(O)(C(F)(F)F)C1=NN=C2O1 (single isomer, unassigned) [Compound 81]",> 1000
10,"Nc1cc(C(F)(F)F)c2nc1-c1nnc(o1)C(O)(C(F)(F)F)c1cc(ccn1)CCC[C@@H]1CCCN21 (single isomer, unassigned) [Compound 86]",> 1000
11,"Nc1cc(C(F)(F)F)c2nc1-c1nnc(o1)C(O)(C(F)(F)F)c1cc(ccn1)CCC[C@@H]1CCCN21 (single isomer, unassigned) [Compound 87]",< 500
12,"Nc1cc(C(F)(F)F)c2nc1-c1nnc(o1)C(O)(C1CCOCC1)CCCCC[C@@H]1CCCN21 (single isomer, unassigned) [Compound 88]",< 500
13,"Nc1cc(C(F)(F)F)c2nc1-c1nnc(o1)C(O)(C1CCOCC1)CCCCC[C@@H]1CCCN21 (single isomer, unassigned) [Compound 89]",> 1000
14,"Nc1cc(C2CC2)c2nc1-c1nnc(o1)C(O)(C(F)(F)F)CCCCC[C@@H]1CCCN21 (single isomer, unassigned) [Compound 91]",> 1000
15,"COc1ccc2cc1C(O)(C(F)(F)F)C1=NN=C(O1)c1nc(c(C(F)(F)F)cc1N)N1CCC[C@H]1CCC2 (single isomer, unassigned) [Compound 92]",> 1000
16,"COc1ccc2cc1C(O)(C(F)(F)F)C1=NN=C(O1)c1nc(c(C(F)(F)F)cc1N)N1CCC[C@H]1CCC2 (single isomer, unassigned) [Compound 93]",< 500
17,"CP(C)(=O)c1cc(N)c2nc1N1CCC[C@H]1CCCCCC(O)(C(F)(F)F)C1=NN=C2O1 (single isomer, unassigned) [Compound 98]",> 1000
18,"Nc1cc(C(F)(F)F)c2nc1-c1nnc(o1)C(O)(CO)CCCCC[C@@H]1CCCN21 (single isomer, unassigned) [Compound 100]",500 to 1000
19,"Nc1cc(C(F)(F)F)c2nc1-c1nnc(o1)C(O)(C(F)(F)F)CCCCCC(CO)N2 (single isomer, unassigned) [Compound 102, 17-amino-12-(hydroxymethyl)-6,15-bis(trifluoromethyl)-19-oxa-3,4,13,18-tetrazatricyclo[12.3.1.12,5]nonadeca-1(18),2,4,14,16-pentaen-6-ol]",< 500
20,"Nc1cc(C(F)(F)F)c2nc1-c1nnc(o1)C(O)(C(F)(F)F)CCCCCC(CO)N2 (single isomer, unassigned) [Compound 103, 17-amino-12-(hydroxymethyl)-6,15-bis(trifluoromethyl)-19-oxa-3,4,13,18-tetrazatricyclo[12.3.1.12,5]nonadeca-1(18),2,4,14,16-pentaen-6-ol]",< 500

# Other lines, results leading:
row,EC50 [nM],SMILES
1,< 500,"CC(C)c1cc(N)c2nc1N1CCC[C@H]1CCCCCC(O)(C(F)(F)F)C1=NN=C2O1 (single isomer, unassigned) [Compound 63]"
2,< 500,"CC1CCCCCC(O)(C(F)(F)F)C2=NN=C(O2)c2nc(c(C(F)(F)F)cc2N)N1 (single isomer, unassigned) [Compound 66, 17-amino-12-methyl-6,15-bis(trifluoromethyl)-19-oxa-3,4,13,18-tetrazatricyclo[12.3.1.12,5]nonadeca-1(18),2,4,14,16-pentaen-6-ol]"
3,< 500,"Nc1ccc2nc1-c1nnc(o1)C(O)(C(F)(F)F)CCCCC[C@@H]1CCCN21 (single isomer, unassigned) [Compound 71]"
4,> 1000,"Nc1ccc2nc1-c1nnc(o1)C(O)(C(F)(F)F)CCCCC[C@@H]1CCCN21 (single isomer, unassigned) [Compound 72]"
5,< 500,"CN1CCCCCCC(O)(c2ccccc2)C2=NN=C(O2)c2nc1c(C(F)(F)F)cc2N (single isomer, unassigned) [Compound 76, 17-amino-13-methyl-6-phenyl-15-(trifluoromethyl)-19-oxa-3,4,13,18-tetrazatricyclo[12.3.1.12,5]nonadeca-1(18),2,4,14,16-pentaen-6-ol]"
6,> 1000,"CN1CCCCCCC(O)(C2CC2)C2=NN=C(O2)c2nc1c(C(F)(F)F)cc2N (single isomer, unassigned) [Compound 79, 17-amino-6-cyclopropyl-13-methyl-15-(trifluoromethyl)-19-oxa-3,4,13,18-tetrazatricyclo[12.3.1.12,5]nonadeca-1(18),2,4,14,16-pentaen-6-ol]"
7,< 500,"N#Cc1cc(N)c2nc1N1CCC[C@H]1CCCCCC(O)(C(F)(F)F)C1=NN=C2O1 (single isomer, unassigned) [Compound 80]"
8,< 500,"Nc1cc(C(F)(F)F)c2nc1-c1nnc(o1)C(O)(C(F)(F)F)c1cccc(n1)CCC[C@@H]1CCCN21 (single isomer, unassigned) [Compound 82]"
9,500 to 1000,"Nc1cc(C(F)(F)F)c2nc1-c1nnc(o1)C(O)(C(F)(F)F)c1cccc(n1)CCC[C@@H]1CCCN21 (single isomer, unassigned) [Compound 83]"
10,< 500,"Nc1cc(C(F)(F)F)c2nc1-c1nnc(o1)C(O)(C(F)(F)F)c1cc(ccn1)CCC[C@@H]1CCCN21 (single isomer, unassigned) [Compound 84]"
11,> 1000,"Nc1cc(C(F)(F)F)c2nc1-c1nnc(o1)C(O)(C(F)(F)F)c1cc(ccn1)CCC[C@@H]1CCCN21 (single isomer, unassigned) [Compound 85]"
12,< 500,"Nc1cc(C2CC2)c2nc1-c1nnc(o1)C(O)(C(F)(F)F)CCCCC[C@@H]1CCCN21 (single isomer, unassigned) [Compound 90]"
13,< 500,"CCOC(=O)C1CCCCCC(O)(C(F)(F)F)C2=NN=C(O2)c2nc(c(C(F)(F)F)cc2N)N1 (single isomer, unassigned) [Compound 94, ethyl 17-amino-6-hydroxy-6,15-bis(trifluoromethyl)-19-oxa-3,4,13,18-tetrazatricyclo[12.3.1.12,5]nonadeca-1(18),2,4,14,16-pentaene-12-carboxylate]"
14,< 500,"CCOC(=O)C1CCCCCC(O)(C(F)(F)F)C2=NN=C(O2)c2nc(c(C(F)(F)F)cc2N)N1 (single isomer, unassigned) [Compound 95, ethyl 17-amino-6-hydroxy-6,15-bis(trifluoromethyl)-19-oxa-3,4,13,18-tetrazatricyclo[12.3.1.12,5]nonadeca-1(18),2,4,14,16-pentaene-12-carboxylate]"
15,> 1000,"CCOC(=O)C1CCCCCC(O)(C(F)(F)F)C2=NN=C(O2)c2nc(c(C(F)(F)F)cc2N)N1 (single isomer, unassigned) [Compound 97, ethyl 17-amino-6-hydroxy-6,15-bis(trifluoromethyl)-19-oxa-3,4,13,18-tetrazatricyclo[12.3.1.12,5]nonadeca-1(18),2,4,14,16-pentaene-12-carboxylate]"
16,> 1000,"CP(C)(=O)c1cc(N)c2nc1N1CCC[C@H]1CCCCCC(O)(C(F)(F)F)C1=NN=C2O1 (single isomer, unassigned) [Compound 99]"
17,< 500,"Nc1cc(C(F)(F)F)c2nc1-c1nnc(o1)C(O)(CO)CCCCC[C@@H]1CCCN21 (single isomer, unassigned) [Compound 101]"
